Legend:
Type in all cases: in vivo
[1] = tested on: Cercospora arachidicola; assay: peanut early leafspot control on peanut seedlings; conditions: Mycosphaerella arachidis, 336 h
Procedure: Compounds of the previous examples were again dissolved in acetone in an amount equal to 6% of the final volume and then suspended at a concentration of 100 ppm in purified water containing 250 ppm of the surfactant TREM 014 (polyhydric alcohol esters). This suspension was sprayed to the point of run-off on peanut seedlings. The following day, the plants were inoculated with a spore suspension of Cercospora arachidicola, causal agent of peanut early leafspot, and incubated in a saturated humidity chamber at 27° for 24 hours and then in a growth room for an additional 14 days, when disease ratings were made. Treated plants from successful treatments had few or no leafspots while the untreated plants had numerous leafspots on each leaf.

[2] = tested on: Pythium aphanadermatum; assay: Pythium control on coated corn seeds; conditions: 504 h, 2 gm/kg seed, 49° F. 2 weeks then 70° F. 1 week
Procedure: Several compounds of the previous examples were incorporated into a proprietary formulation and used to coat corn seeds at a rate of 2 gm/kg seed. After being thoroughly coated, the seeds were allowed to air dry at room temperature. The seeds were then planted into soil amended with a mixture of the fungus Pythium aphanadermatum, sand, and corn meal at a rate sufficient to kill most untreated seeds. The seeds were held at 49° F. for 2 weeks and then at 70° F. for 1 additional week. After this time disease ratings were made.

[3] = tested on: Pyricularia oryzae; assay: whole plant or invertebrate; conditions: 168 h, read-out: % Control of Rice Blast
[4] = tested on: Helminthosporium maydis; assay: southern corn leaf blight control on corn seedlings; conditions: Bipolaris maydis, 168 h
Procedure: Compounds of the previous example were again dissolved in acetone in an amount equal to 6% of the final volume and then suspended at a concentration of 100 ppm in purified water containing 250 ppm of the surfactant TREM 014 (polyhydric alcohol esters). This suspension was sprayed to the point of run-off on corn seedlings. The following day, the plants were inoculated with a spore suspension of Helminthosporium maydis, causal agent of southern corn leaf blight, and incubated in a saturated humidity chamber at 20° for 24 hours and then in a growth room for an additional 7 days, when disease ratings were made. Treated plants from successful treatments had few lesions while the untreated plants had numerous lesions on each leaf.

[5] = tested on: Pythium aphanadermatum; assay: Pythium control on coated cotton seeds; conditions: 168 h; for pest or weed control at 2000 mg/kg: 2 gm/kg seed, 1 week
Excerpt: Several compounds of the previous examples were incorporated into a proprietary formulation and used to coat cotton seeds at a rate of 2 gm/kg seed. After being thoroughly coated, the seeds were allowed to air dry at room temperature. The cotton seeds were then planted into soil amended with the fungus Pythium aphanadermatum, sand, and corn meal at a rate sufficient to kill most untreated seeds. The seeds were held at room temperature for 1 week, after which time disease ratings were made.

[6] = tested on: Phytophthora infestans; assay: whole plant or invertebrate; conditions: Phytophthora infestans, in Solanum lycopersicum, 168 h, read-out: % Control of Tomato Late Blight
[7] = tested on: Puccinia recondita var. tritici; assay: wheat leaf rust control on wheat seedlings; conditions: 100 ppm, sprayed day before inoculation
Procedure: (§1) Compounds of this invention were dissolved in acetone in an amount equal to 6% of the final volume and then suspended at a concentration of 100 ppm in purified water containing 250 ppm of the surfactant TREM 014 (polyhydric alcohol esters). This suspension was sprayed to the point of run-off on wheat seedlings. The following day, the plants were inoculated with a spore suspension of Puccinia recondita var. tritici, causal agent of wheat leaf rust, and incubated in a saturated humidity chamber at 20° for 24 hours and then in a growth room for an additional 7 days, when disease ratings were made. Treated plants from successful treatments had few or no rust pustules while the untreated plants had numerous rust pustules on each leaf.

[8] = tested on: Erysiphe cichoracearum; assay: cucumber powdery mildew control on cucumber seedlings; conditions: Golovinomyces cichoracearum, 168 h, 7 days
Procedure: Compounds of the previous examples were again dissolved in acetone in an amount equal to 6% of the final volume and then suspended at a concentration of 100 ppm in purified water containing 250 ppm of the surfactant TREM 014 (polyhydric alcohol esters). This suspension was sprayed to the point of run-off on cucumber seedlings. The following day, the plants were inoculated with a spore suspension of the fungus Erysiphe cichoracearum, causal agent of cucumber powdery mildew, and incubated in a growth room for 7 days. Disease ratings were then made. Treated plants from successful treatments had little or no powdery mildew in contrast to untreated plants which were covered with powdery mildew.

[9] = tested on: Rhizoctonia solani; assay: rice sheath blight control on rice seedlings; conditions: Rhizoctonia solani, 168 h, 7 days
Procedure: Several compounds of the previous examples were again dissolved in acetone in an amount equal to 6% of the final volume and then suspended at a concentration of 100 ppm in purified water containing 250 ppm of the surfactant TREM 014 (polyhydric alcohol esters). This suspension was sprayed to the point of run-off on rice seedlings. The following day, the plants were inoculated with a mixture of bran and the mycelium of Rhizoctonia solani, causal agent of sheath blight of rice, and incubated in a growth room for 7 days. Disease ratings were then made. Treated plants from successful treatments had little sheath blight in contrast to untreated plants which were covered with sheath blight.

[10] = tested on: Venturia inaequalis; assay: apple scab control on apple seedlings; conditions: Venturia inaequalis; 100 ppm
Procedure: as §1, with “apple” for “wheat”, “the fungus Venturia inaequalis,” for “Puccinia recondita var. tritici,”, “apple scab,” for “wheat leaf rust,”, “10-12 days.” for “7 days, when disease ratings were made.”, “apple scab lesions when compared to” for “rust pustules while the”, “which were covered with scab lesions.” for “had numerous rust pustules on each leaf.”

[11] = tested on: cucumber seedlings; assay: phytotoxicity on cucumber seedlings; set-up: key: G: growth reduction; H: hormonal effects; conditions: 100 ppm

Structure (SMILES)	pest or weed control at 100 ppm [1]	pest or weed control at 2000 mg/kg [2]	pest or weed control at 100 ppm [3]	pest or weed control at 100 ppm [4]	pest or weed control at 2000 mg/kg [5]	pest or weed control at 100 ppm [6]	pest or weed control at 100 ppm [7]	pest or weed control at 100 ppm [8]	pest or weed control at 100 ppm [9]	pest or weed control at 100 ppm [10]	Phytotoxicity (growth reduction or hormonal effects) [11]	pest or weed control at 500 mg/kg ([5]; 0.5 gm/kg seed)
CCCC[Si](C)(Cn1ccnc1)c1ccc(-c2ccccc2)cc1 (stereo not shown) [(1,1'-Biphenyl-4-yl)butyl(1H-imidazol-1-ylmethyl)methylsilane]	90%	0%	90%	0%	0%	0%	100%	100%	90%	100%		
COc1ccccc1[Si](C)(C)Cn1ccnc1 [(1H-Imidazol-1-ylmethyl)(2-methoxyphenyl)dimethylsilane]	0%		0%	0%		0%	0%	100%	90%	60%	G	
C[Si](C)(Cn1ccnc1)c1ccccc1C(F)(F)F [(1H-Imidazol-1-ylmethyl)dimethyl(2-trifluoromethylphenyl)silane]	0%		0%	90%		0%	0%	100%	80%	0%	G	
C[Si](C)(Cn1ccnc1)c1ccccc1Cl [(2-Chlorophenyl)(1H-imidazol-1-ylmethyl)dimethylsilane]	80%		0%	0%	0%	0%	0%	100%	0%	90%		
C[Si](C)(Cn1ccnc1)c1ccc(Cl)cc1 [(4-Chlorophenyl)dimethyl(1H-imidazol-1-ylmethyl)silane]	0%	25%	0%	0%		0%	50%	100%	0%	0%		18%
CCCC[Si](C)(Cn1ccnc1)c1ccc(F)cc1 (stereo not shown) [Butyl(4-fluorophenyl)(1H-imidazol-1-ylmethyl)methylsilane]	0%	0%	100%	0%	0%	0%	0%	100%	80%	80%		
C[Si](C)(Cn1ccnc1)c1cccc(C(F)(F)F)c1 [Dimethyl(1H-imidazol-1-ylmethyl)(3-trifluoromethylphenyl)silane]	50%	0%	0%	0%	0%	70%	0%	80%	0%	0%		
O[Si](Cn1ccnc1)(c1ccc(Cl)cc1)c1ccc(Cl)cc1 [[bis(4-chlorophenyl)]hydroxy(1H-imidazol-1-ylmethyl)silane]	50%		0%	0%		0%	80%	100%	0%	0%		
C[Si](Cn1ccnc1)(c1ccc(-c2ccccc2)cc1)c1ccc(-c2ccccc2)cc1 [bis(1,1'-Biphenyl-4-yl)(1H-imidazol-1-ylmethyl)methylsilane]	60%		0%	0%		0%	0%	0%	0%	50%		
C[Si](Cn1ccnc1)(c1ccc(Cl)cc1Cl)c1ccc(Cl)cc1Cl [bis(2,4-Dichlorophenyl)(1H-imidazol-1-ylmethyl)methylsilane]	90%		0%	80%		0%	100%	100%	80%	40%		
O[Si](Cn1ccnc1)(c1ccc(F)cc1)c1ccc(F)cc1 [bis(4-Fluorophenyl)hydroxy(1H-imidazol-1-ylmethyl)silane]	50%		60%	0%		0%	100%	100%	90%	0%		
Clc1ccc([Si](Cn2ccnc2)(c2ccc(Cl)cc2)c2ccc(Cl)cc2)cc1 [tris(4-Chlorophenyl)(1H-imidazol-1-ylmethyl)silane]	0%		0%	0%		0%	0%	100%	0%	0%		
Fc1ccc([Si](Cn2ccnc2)(c2ccc(F)cc2)c2ccc(F)cc2)cc1 [tris(4-Fluorophenyl)(1H-imidazol-1-ylmethyl)silane]	0%		0%	0%		0%	80%	100%	0%	0%		
